Results: US20220184099A1, “METHODS OF USING OBETICHOLIC ACID” (Intercept Pharmaceuticals, Inc., priority 2018, published 2022)

Legend:
[1] = Adverse events, safety and tolerability of OCA 10 mg or 25 mg QD for 28 days; format: in vivo, human; conditions: for Total adverse events (AEs): both doses
Protocol: (§1) To evaluate safety, the PK and PD of OCA administered at 10 mg/day or 25 mg/day in subjects with compensated cirrhosis due to NASH was compared to healthy controls in a randomized, double blind, single center, Phase 3 study. Sixteen subjects with cirrhosis due to NASH and 8 healthy, age- and weight-matched, subjects were randomized in a 1:1 ratio to QD OCA 10 mg or OCA 25 mg for 28 days, according to FIG. 1 and Table 1. Extensive serial PK sampling over a 24-hour period was performed on Day 1 and Day 28 of dosing.

[2] = Plasma PK of total OCA (AUC0-24 h), serial sampling on Day 1 and Day 28 of dosing; format: in vivo, human
Protocol: as §1

[3] = Liver biochemistry (ALT, AST, GGT, ALP, bilirubin) during 28 days of QD OCA; format: in vivo, human
Protocol: as §1

[4] = Albumin, creatinine, platelets and INR levels in subjects of the clinical study; format: in vivo, human; conditions: for Albumin, % Change at Day 28 / Albumin, Day 28 / Creatinine, % Change at Day 28 / Creatinine, Day 28 / Platelets, % Change at Day 28 / Platelets, Day 28: median
Protocol: as §1

FXR = target: T1, FXR (Homo sapiens, UniProt Q96RI1); experiment: PD markers of FXR activation (C4, FGF-19) during 28 days of QD OCA; format: in vivo
T1 construct: FGF-19 released from gut enterocytes (in response to FXR agonist) into portal circulation down regulates endogenous bile acid synthesis in the liver; endogenous in cells; host or cells: human study subjects in vivo (gut enterocytes, liver)
T1 sequence (Q96RI1 1-486): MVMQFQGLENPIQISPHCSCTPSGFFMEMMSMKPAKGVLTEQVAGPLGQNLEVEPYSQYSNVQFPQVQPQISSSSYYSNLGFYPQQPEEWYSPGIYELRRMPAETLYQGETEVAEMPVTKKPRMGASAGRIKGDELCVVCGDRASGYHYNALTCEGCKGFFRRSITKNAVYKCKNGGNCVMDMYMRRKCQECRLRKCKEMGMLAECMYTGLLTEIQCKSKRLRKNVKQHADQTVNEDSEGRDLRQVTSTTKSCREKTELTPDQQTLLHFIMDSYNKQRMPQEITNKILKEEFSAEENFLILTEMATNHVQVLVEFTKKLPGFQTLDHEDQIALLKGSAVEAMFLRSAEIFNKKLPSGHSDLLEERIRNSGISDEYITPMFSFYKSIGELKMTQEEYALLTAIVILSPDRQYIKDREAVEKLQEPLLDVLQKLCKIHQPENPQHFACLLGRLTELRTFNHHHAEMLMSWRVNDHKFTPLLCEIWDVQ
Text: In one aspect, obeticholic acid may mediate its action primarily via FXR agonism, wherein FGF-19 released from gut enterocytes (in response to FXR agonist) into portal circulation down regulates endogenous bile acid synthesis in the liver. The present disclosure comprehends a method of measuring FXR agonist activity by, for example, measuring release of FGF-19 into the bloodstream or circulation of a patient administered with OCA. Levels of FGF-19 may be measured by methods known in the art, such as those described herein.
In some embodiments, the plasma levels of FGF-19, a marker of FXR activation, are determined using a qualified method and a validated method using an enzyme-linked immunosorbent assay (ELISA) method. The plasma concentrations of FGF-19 may be quantitated at predose and after administration of dose.
In some examples, a monoclonal antibody specific for FGF-19 is pre-coated onto a microplate. Standards, quality controls and samples are pipetted into the wells and any FGF-19 present is bound by the immobilized antibody. After washing away any unbound substances, an enzyme-linked polyclonal antibody specific for FGF-19 is added to the wells. Following a wash to remove any unbound antibody-enzyme reagent, a substrate solution is added to the wells and color develops in the proportion to the amount of FGF-19 bound in the initial step. The color development is stopped and the intensity of the color is measured. The calibration range of the method is 15.625 pg/ml to 1000 pg/ml for FGF-19 using a 100 μl aliquot of standard curve, quality control and sample. In some embodiments, no minimum required dilution is used. In other embodiments, samples may be subjected to a 3× minimum required dilution.
To evaluate safety, the PK and PD of OCA administered at 10 mg/day or 25 mg/day in subjects with compensated cirrhosis due to NASH was compared to healthy controls in a randomized, double blind, single center, Phase 3 study. […]

[5] = both dose groups, throughout the 28-day study

CC[C@H]1[C@@H](O)[C@@H]2[C@H](CC[C@]3(C)[C@@H]([C@H](C)CCC(=O)O)CC[C@@H]23)[C@@]2(C)CC[C@@H](O)C[C@@H]12 [OCA, 3α,7α-dihydroxy-6α-ethyl-5β-cholan-24-oic acid]
Subjects who discontinued treatment due to elevated bilirubin levels ([1]; NASH, OCA 25 mg, advanced disease with portal hypertension and history of hyperbilirubinemia, discontinued on Day 25): One | Liver-related adverse events reported ([1]; all subjects): one | Serious adverse events ([1]; all subjects): No serious adverse events were observed | Severity of all AEs ([1]; all subjects, no trend for liver related AEs): mild or moderate | Overall safety and tolerability ([1]; daily OCA at 10 mg and 25 mg): generally safe and well tolerated | Subjects experiencing adverse events ([1]; healthy subjects on 10 mg): 3 subjects | Subjects experiencing adverse events ([1]; healthy subjects on 25 mg): 2 subjects | Total adverse events (AEs) ([1]; healthy subjects): 5 AEs | Subjects experiencing adverse events ([1]; healthy subjects, both doses (of 8)): 5 subjects | Subjects experiencing adverse events ([1]; subjects with NASH on 10 mg): 2 subjects | Subjects experiencing adverse events ([1]; subjects with NASH on 25 mg): 4 subjects | Total adverse events (AEs) ([1]; subjects with NASH): 13 AEs | Subjects experiencing adverse events ([1]; subjects with NASH, both doses (of 16)): Six | Subjects reporting mild or moderate pruritus ([1]; subjects with NASH, no relationship to dose): Four | Time for bilirubin levels to return to normal after discontinuation of OCA ([1]; the one NASH subject on 25 mg who discontinued): 1 days | Plasma exposure of total OCA in subjects with cirrhosis due to NASH relative to healthy subjects ([2]; daily OCA 10 mg and 25 mg): higher | Hepatic exposure of OCA ([2]; despite increased systemic exposure, FIGS. 11A and 11B): remain nominal | Bilirubin levels (direct and total) ([3]; 10 mg and 25 mg groups, 28 days): no apparent trend | ALP ([3]; OCA 25 mg group, mostly driven by subjects with elevated ALP at Baseline): moderate increase | ALT [3, 5]: improvements | AST [3, 5]: improvements | GGT [3, 5]: improvements | Albumin levels ([4]; 28 days): No changes | INR ([4]; 28 days): No changes | Platelet levels ([4]; 28 days): No changes | Albumin, % Change at Day 28 ([4]; Healthy, 10 mg OCA (n = 4)): 2.3% | Albumin, Day 28 ([4]; Healthy, 10 mg OCA (n = 4)): 4.5 g/dL | Creatinine, % Change at Day 28 ([4]; Healthy, 10 mg OCA (n = 4)): −1.6% | Creatinine, Day 28 ([4]; Healthy, 10 mg OCA (n = 4)): 0.96 mg/dL | Platelets, % Change at Day 28 ([4]; Healthy, 10 mg OCA (n = 4)): 0.4% | Platelets, Day 28 ([4]; Healthy, 10 mg OCA (n = 4)): 262.0 10^9/L | Albumin, % Change at Day 28 ([4]; Healthy, 25 mg OCA (n = 4)): −4.0% | Albumin, Day 28 ([4]; Healthy, 25 mg OCA (n = 4)): 4.0 g/dL | Creatinine, % Change at Day 28 ([4]; Healthy, 25 mg OCA (n = 4)): 8.3% | Creatinine, Day 28 ([4]; Healthy, 25 mg OCA (n = 4)): 0.78 mg/dL | Platelets, % Change at Day 28 ([4]; Healthy, 25 mg OCA (n = 4)): 4.0% | Platelets, Day 28 ([4]; Healthy, 25 mg OCA (n = 4)): 261.0 10^9/L | Albumin, % Change at Day 28 ([4]; NASH CP-A, 10 mg OCA (n = 8)): −3.9% | Albumin, Day 28 ([4]; NASH CP-A, 10 mg OCA (n = 8)): 4.0 g/dL | Creatinine, % Change at Day 28 ([4]; NASH CP-A, 10 mg OCA (n = 8)): 4.3% | Creatinine, Day 28 ([4]; NASH CP-A, 10 mg OCA (n = 8)): 0.88 mg/dL | Platelets, % Change at Day 28 ([4]; NASH CP-A, 10 mg OCA (n = 8)): −9.7% | Platelets, Day 28 ([4]; NASH CP-A, 10 mg OCA (n = 8)): 101.5 10^9/L | Albumin, % Change at Day 28 ([4]; NASH CP-A, 25 mg OCA (n = 8)): −6.5% | Albumin, Day 28 ([4]; NASH CP-A, 25 mg OCA (n = 8)): 4.0 g/dL | Creatinine, % Change at Day 28 ([4]; NASH CP-A, 25 mg OCA (n = 8)): 0.8% | Creatinine, Day 28 ([4]; NASH CP-A, 25 mg OCA (n = 8)): 0.87 mg/dL | Platelets, % Change at Day 28 ([4]; NASH CP-A, 25 mg OCA (n = 8)): −2.0% | Platelets, Day 28 ([4]; NASH CP-A, 25 mg OCA (n = 8)): 155.5 10^9/L | PD effects (FXR; both doses of OCA): favorable PD effects | C4 (FXR; both dosing groups): suppression | FGF-19 (FXR; both dosing groups): activation
